# Assays:
# CfEcR-DEF mutant F109P = assay: GAL4-driven luciferase reporter assay in NIH3T3 cells; assay type: cell-based, Choristoneura fumiferana
# Procedure: (§1) This construct was prepared in the same way as in switch 1.1 above except wild-type CfEcR-DEF was replaced with mutant CfEcR-DEF comprising a ligand binding domain comprising a substitution mutation selected from Table 1 below.
# (§2) DNAs were transfected into mouse NIH3T3 cells (ATCC) as follows. Standard methods for culture and maintenance of the cells were followed. Cells were harvested and plated 96-well plates at 2,500 cells per well, in 50 μL of growth medium containing 10% fetal bovine serum (FBS). Twenty-four hours later, the cells were treated with 35 μL of serum-free growth medium containing either dimethylsulfoxide (DMSO; control) or a DMSO solution of ligand. The cells were then transfected using Superfect (Qiagen Inc.) transfection reagent. For each well, 0.625 μL of Superfect was mixed with 14.2 μL of serum-free growth medium. 0.16 μg of reporter construct and 0.04 μg of each receptor construct were added to the transfection reagent mix. The contents of the transfection mix were mixed in a vortex mixer and let stand at room temperature for 30 minutes. At the end of incubation, 15 μL of transfection mix was added to the cells. The cells were maintained at 37° C. and 5% CO2 for 48 hours in 5% FBS.
# (§3) Reporter Assays: Cells were harvested 40 hours after adding ligands. 125 μL of passive lysis buffer (part of Dual-Luciferase reporter assay system from Promega Corporation) were added to each well of the […] plate. The plates were placed on a rotary shaker for 15 minutes. Twenty μL of lysate were assayed. Luciferase activity was measured using Dual-Luciferase reporter assay system from Promega Corporation following the manufacturer's instructions. Fold induction (FI) activities were calculated by dividing relative light units (“RLU”) in ligand treated cells with RLU in DMSO treated cells (untreated control).
# CfEcR-DEF mutant I51N = assay: as above; assay type: cell-based, Choristoneura fumiferana
# Procedure: as §1, §2, §3
# CfEcR-DEF mutant L132N = assay: as above; assay type: cell-based, Choristoneura fumiferana
# Procedure: as §1, §2, §3
# CfEcR-DEF mutant N119F = assay: as above; assay type: cell-based, Choristoneura fumiferana
# Procedure: as §1, §2, §3
# CfEcR-DEF mutant F109W = CfEcR-DEF mutant F109W (Choristoneura fumiferana, UniProt O77255, F392W); assay: cell-based
# Chain of CfEcR-DEF mutant F109W (O77255 entry or part of it F392W): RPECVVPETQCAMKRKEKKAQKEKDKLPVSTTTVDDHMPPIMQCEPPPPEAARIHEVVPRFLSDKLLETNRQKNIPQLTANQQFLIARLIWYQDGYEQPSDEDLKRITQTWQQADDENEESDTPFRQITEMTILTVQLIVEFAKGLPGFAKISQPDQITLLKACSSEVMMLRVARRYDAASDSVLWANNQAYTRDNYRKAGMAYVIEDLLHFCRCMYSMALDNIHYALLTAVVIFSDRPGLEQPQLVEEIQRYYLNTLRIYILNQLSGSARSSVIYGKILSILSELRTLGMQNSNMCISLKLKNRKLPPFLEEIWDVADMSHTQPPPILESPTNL
# Chain of CfEcR-DEF mutant F109W (P28702 299-449, further chain): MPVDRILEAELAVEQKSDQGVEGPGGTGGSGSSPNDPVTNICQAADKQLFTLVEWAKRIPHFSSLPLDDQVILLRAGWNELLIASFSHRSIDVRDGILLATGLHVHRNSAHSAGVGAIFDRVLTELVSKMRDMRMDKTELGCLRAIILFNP
# Summary of the method: (§4)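 Mutant CfEcR-DEF receptor and GAL4-driven luciferase reporter constructs transfected into mouse NIH3T3 cells with DMSO or ligand added; maintained 48 h at 37° C in 5% FBS, harvested 40 h after ligand addition. Dual-luciferase read-out; fold induction = RLU with ligand / RLU with DMSO.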
# CfEcR-DEF mutant L234I = CfEcR-DEF mutant L234I (Choristoneura fumiferana, UniProt O77255, L517I); assay: cell-based
# Chain of CfEcR-DEF mutant L234I (P28702 299-449): as the sequence (P28702 299-449, further chain) above
# Chain of CfEcR-DEF mutant L234I (O77255 entry or part of it L517I): as the sequence (O77255 entry or part of it F392W) above, with W186F, L311I counted along it
# Summary of the method: as §4
# CfEcR-DEF mutant M92E = CfEcR-DEF mutant M92E (Choristoneura fumiferana, UniProt O77255, M375E); assay: cell-based
# Chain of CfEcR-DEF mutant M92E (P28702 299-449): as the sequence (P28702 299-449, further chain) above
# Chain of CfEcR-DEF mutant M92E (O77255 entry or part of it M375E): as the sequence (O77255 entry or part of it F392W) above, with M169E, W186F counted along it
# Summary of the method: as §4
# CfEcR-DEF mutant M92L = CfEcR-DEF mutant M92L (Choristoneura fumiferana, UniProt O77255, M375L); assay: cell-based
# Chain of CfEcR-DEF mutant M92L (O77255 entry or part of it M375L): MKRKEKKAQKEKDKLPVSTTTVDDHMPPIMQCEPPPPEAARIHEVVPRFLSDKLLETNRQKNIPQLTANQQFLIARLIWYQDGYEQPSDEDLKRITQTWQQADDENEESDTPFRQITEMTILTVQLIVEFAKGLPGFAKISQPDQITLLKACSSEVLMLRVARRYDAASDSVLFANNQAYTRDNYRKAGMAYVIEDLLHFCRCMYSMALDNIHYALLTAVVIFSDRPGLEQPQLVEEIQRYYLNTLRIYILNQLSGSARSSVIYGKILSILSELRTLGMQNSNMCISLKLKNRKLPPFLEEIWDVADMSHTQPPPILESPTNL
# Chain of CfEcR-DEF mutant M92L (P28702 299-449, further chain): as the sequence (P28702 299-449, further chain) above
# Summary of the method: as §4
# [1] = biological target: CfEcR-DEF mutant N119F/V96T (Choristoneura fumiferana, UniProt O77255, N402F/V379T); assay: cell-based
# Chain of CfEcR-DEF mutant N119F/V96T (O77255 entry or part of it V379T/N402F): as the sequence (O77255 entry or part of it M375L) above, with L157M, V161T, N184F counted along it
# Chain of CfEcR-DEF mutant N119F/V96T (P28702 299-449, further chain): as the sequence (P28702 299-449, further chain) above
# Summary of the method: as §4
# CfEcR-DEF mutant R95M = CfEcR-DEF mutant R95M (Choristoneura fumiferana, UniProt O77255, R378M); assay: cell-based
# Chain of CfEcR-DEF mutant R95M (P28702 299-449): as the sequence (P28702 299-449, further chain) above
# Chain of CfEcR-DEF mutant R95M (O77255 entry or part of it R378M): as the sequence (O77255 entry or part of it M375L) above, with L157M, R160M counted along it
# Summary of the method: as §4
# [2] = biological target: CfEcR-DEF mutant V107I/Y127E/A110P (Choristoneura fumiferana, UniProt O77255, A393P/V390I/Y410E); assay: cell-based
# Chain of CfEcR-DEF mutant V107I/Y127E/A110P (P28702 299-449, stated change not applied): as the sequence (P28702 299-449, further chain) above
# Chain of CfEcR-DEF mutant V107I/Y127E/A110P (O77255 entry or part of it V390I/A393P/Y410E): as the sequence (O77255 entry or part of it M375L) above, with L157M, V172I, A175P, Y192E counted along it
# Summary of the method: as §4
# [3] = biological target: CfEcR-DEF mutant V128F/A110P (Choristoneura fumiferana, UniProt O77255, A393P/V411F); assay: cell-based
# Chain of CfEcR-DEF mutant V128F/A110P (P28702 299-449, stated change not applied): as the sequence (P28702 299-449, further chain) above
# Chain of CfEcR-DEF mutant V128F/A110P (O77255 entry or part of it A393P/V411F): as the sequence (O77255 entry or part of it M375L) above, with L157M, A175P, V193F counted along it
# Summary of the method: as §4
# CfEcR-DEF mutant V96L = CfEcR-DEF mutant V96L (Choristoneura fumiferana, UniProt O77255, V379L); assay: cell-based
# Chain of CfEcR-DEF mutant V96L (O77255 entry or part of it V379L): as the sequence (O77255 entry or part of it M375L) above, with L157M, V161L counted along it
# Chain of CfEcR-DEF mutant V96L (P28702 299-449, further chain): as the sequence (P28702 299-449, further chain) above
# Summary of the method: as §4
# CfEcR-DEF mutant V96S = CfEcR-DEF mutant V96S (Choristoneura fumiferana, UniProt O77255, V379S); assay: cell-based
# Chain of CfEcR-DEF mutant V96S (O77255 entry or part of it V379S): as the sequence (O77255 entry or part of it M375L) above, with L157M, V161S counted along it
# Chain of CfEcR-DEF mutant V96S (P28702 299-449, further chain): as the sequence (P28702 299-449, further chain) above
# Summary of the method: as §4
# CfEcR-DEF mutant V96W = CfEcR-DEF mutant V96W (Choristoneura fumiferana, UniProt O77255, V379W); assay: cell-based
# Chain of CfEcR-DEF mutant V96W (O77255 entry or part of it V379W): as the sequence (O77255 entry or part of it M375L) above, with L157M, V161W counted along it
# Chain of CfEcR-DEF mutant V96W (P28702 299-449, further chain): as the sequence (P28702 299-449, further chain) above
# Summary of the method: as §4
# CfEcR-DEF mutant M125G = CfEcR-DEF mutant M125G (Choristoneura fumiferana, UniProt O77255, M408G); assay: GAL4-driven luciferase reporter assay in NIH3T3 cells; assay type: cell-based
# Chain of CfEcR-DEF mutant M125G (P28702 299-449): as the sequence (P28702 299-449, further chain) above
# Chain of CfEcR-DEF mutant M125G (O77255 entry or part of it M408G): as the sequence (O77255 entry or part of it F392W) above, with W186F, M202G counted along it
# Summary of the method: as §4
# CfEcR-DEF mutant M125N = CfEcR-DEF mutant M125N (Choristoneura fumiferana, UniProt O77255, M408N); assay: as above; assay type: cell-based
# Chain of CfEcR-DEF mutant M125N (O77255 entry or part of it M408N): as the sequence (O77255 entry or part of it M375L) above, with L157M, M190N counted along it
# Chain of CfEcR-DEF mutant M125N (P28702 299-449, further chain): as the sequence (P28702 299-449, further chain) above
# Summary of the method: as §4
# CfEcR-DEF mutant M125V = CfEcR-DEF mutant M125V (Choristoneura fumiferana, UniProt O77255, M408V); assay: as above; assay type: cell-based
# Chain of CfEcR-DEF mutant M125V (O77255 entry or part of it M408V): as the sequence (O77255 entry or part of it M375L) above, with L157M, M190V counted along it
# Chain of CfEcR-DEF mutant M125V (P28702 299-449, further chain): as the sequence (P28702 299-449, further chain) above
# Summary of the method: as §4
# CfEcR-DEF mutant M219K = CfEcR-DEF mutant M219K (Choristoneura fumiferana, UniProt O77255, M502K); assay: as above; assay type: cell-based
# Chain of CfEcR-DEF mutant M219K (P28702 299-449): as the sequence (P28702 299-449, further chain) above
# Chain of CfEcR-DEF mutant M219K (O77255 entry or part of it M502K): as the sequence (O77255 entry or part of it F392W) above, with W186F, M296K counted along it
# Summary of the method: as §4
# CfEcR-DEF mutant M219W = CfEcR-DEF mutant M219W (Choristoneura fumiferana, UniProt O77255, M502W); assay: as above; assay type: cell-based
# Chain of CfEcR-DEF mutant M219W (P28702 299-449): as the sequence (P28702 299-449, further chain) above
# Chain of CfEcR-DEF mutant M219W (O77255 entry or part of it M502W): as the sequence (O77255 entry or part of it F392W) above, with W186F, M296W counted along it
# Summary of the method: as §4
# CfEcR-DEF mutant T52M = CfEcR-DEF mutant T52M (Choristoneura fumiferana, UniProt O77255, T335M); assay: as above; assay type: cell-based
# Chain of CfEcR-DEF mutant T52M (O77255 entry or part of it T335M): as the sequence (O77255 entry or part of it F392W) above, with T129M, W186F counted along it
# Chain of CfEcR-DEF mutant T52M (P28702 298-449, further chain): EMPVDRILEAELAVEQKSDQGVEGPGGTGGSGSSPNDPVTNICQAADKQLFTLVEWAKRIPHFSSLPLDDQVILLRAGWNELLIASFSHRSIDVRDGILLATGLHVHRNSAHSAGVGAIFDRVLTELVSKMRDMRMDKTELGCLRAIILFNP
# Summary of the method: as §4
# CfEcR-DEF mutant T52R = CfEcR-DEF mutant T52R (Choristoneura fumiferana, UniProt O77255, T335R); assay: as above; assay type: cell-based
# Chain of CfEcR-DEF mutant T52R (O77255 entry or part of it T335R): as the sequence (O77255 entry or part of it M375L) above, with T117R, L157M counted along it
# Chain of CfEcR-DEF mutant T52R (P28702 299-449, further chain): as the sequence (P28702 299-449, further chain) above
# Summary of the method: as §4
# [4] = NIH3T3, 40 h, read-out: Rel Max FI
# [5] = NIH3T3, mouse, 40 h, read-out: GS-E ligand max FI (relative to DMSO)
smiles,measurement,setting,value
"CCc1c(OC)cccc1C(=O)NN(C(=O)c1cc(C)cc(C)c1)C(C)(C)C [RG-102240, N-(2-ethyl-3-methoxybenzoyl)-N′-(3,5-dimethylbenzoyl)-N′-tert-butylhydrazine]",GS-E ligand max FI (relative to DMSO),CfEcR-DEF mutant F109P,1
same,Concentration (mM) at max FI,CfEcR-DEF mutant F109P; GS-E ligand,10.00 mM
same,GS-E ligand max FI (relative to DMSO),CfEcR-DEF mutant I51N,1
same,Concentration (mM) at max FI,CfEcR-DEF mutant I51N; GS-E ligand,33.30 mM
same,GS-E ligand max FI (relative to DMSO),CfEcR-DEF mutant L132N,785
same,Concentration (mM) at max FI,CfEcR-DEF mutant L132N; GS-E ligand,33.30 mM
same,Fold increase over WT,CfEcR-DEF mutant N119F; 1.6 nM ligand,1.22
same,Fold increase over WT,CfEcR-DEF mutant N119F; 8 nM ligand,0.73
same,Fold increase over WT,CfEcR-DEF mutant N119F; 40 nM ligand,0.06
same,Fold increase over WT,CfEcR-DEF mutant N119F; 200 nM ligand,0.01
same,Fold increase over WT,CfEcR-DEF mutant N119F; 1 μM ligand,0.08
same,Fold increase over WT,CfEcR-DEF mutant N119F; 5 μM ligand,0.59
same,EC50,CfEcR-DEF mutant F109W,0.61 µM
same,Emax,CfEcR-DEF mutant F109W; [4],100%
same,maximal fold induction,CfEcR-DEF mutant F109W; [5],3060
same,Concentration (mM) at max FI,"CfEcR-DEF mutant F109W; mutant F109W, GS-E ligand",10.00 mM
same,EC50,CfEcR-DEF mutant L234I,0.77 µM
same,Emax,CfEcR-DEF mutant L234I; [4],100%
same,maximal fold induction,CfEcR-DEF mutant L234I; [5],2650
same,Concentration (mM) at max FI,"CfEcR-DEF mutant L234I; mutant L234I, GS-E ligand",10 mM
same,EC50,CfEcR-DEF mutant M92E,~8 µM
same,Emax,CfEcR-DEF mutant M92E; [4],100%
same,maximal fold induction,CfEcR-DEF mutant M92E; [5],141
same,Concentration (mM) at max FI,"CfEcR-DEF mutant M92E; mutant M92E, GS-E ligand",0.0333 mM
same,EC50,CfEcR-DEF mutant M92L,~8 µM
same,Emax,CfEcR-DEF mutant M92L; [4],100%
same,maximal fold induction,CfEcR-DEF mutant M92L; [5],1200
same,Concentration (mM) at max FI,"CfEcR-DEF mutant M92L; mutant M92L, GS-E ligand",33.30 mM
same,EC50,[1],~8 µM
same,Emax,[1]; [4],100%
same,maximal fold induction,[1]; [5],1740
same,Concentration (mM) at max FI,"[1]; mutant N119F/V96T, GS-E ligand",33.3 mM
same,EC50,CfEcR-DEF mutant R95M,2.76 µM
same,Emax,CfEcR-DEF mutant R95M; [4],100%
same,maximal fold induction,CfEcR-DEF mutant R95M; [5],1690
same,Concentration (mM) at max FI,"CfEcR-DEF mutant R95M; mutant R95M, GS-E ligand",33.30 mM
same,EC50,[2],0.3 µM
same,Emax,[2]; [4],100%
same,maximal fold induction,[2]; [5],2210
same,Concentration (mM) at max FI,"[2]; mutant V107I/Y127E/A110P, GS-E ligand",10 mM
same,EC50,[3],~8 µM
same,Emax,[3]; [4],100%
same,maximal fold induction,[3]; [5],2960
same,Concentration (mM) at max FI,"[3]; mutant V128F/A110P, GS-E ligand",33.30 mM
same,EC50,CfEcR-DEF mutant V96L,~1 µM
same,Emax,CfEcR-DEF mutant V96L; [4],100%
same,maximal fold induction,CfEcR-DEF mutant V96L; [5],4380
same,Concentration (mM) at max FI,"CfEcR-DEF mutant V96L; mutant V96L, GS-E ligand",10 mM
same,EC50,CfEcR-DEF mutant V96S,1.14 µM
same,Emax,CfEcR-DEF mutant V96S; [4],100%
same,maximal fold induction,CfEcR-DEF mutant V96S; [5],1830
same,Concentration (mM) at max FI,"CfEcR-DEF mutant V96S; mutant V96S, GS-E ligand",33.3 mM
same,EC50,CfEcR-DEF mutant V96W,~1 µM
same,Emax,CfEcR-DEF mutant V96W; [4],100%
same,maximal fold induction,CfEcR-DEF mutant V96W; [5],615
same,Concentration (mM) at max FI,"CfEcR-DEF mutant V96W; mutant V96W, GS-E ligand",33.3 mM
same,EC50,CfEcR-DEF mutant M125G,14.2 µM
same,Emax,CfEcR-DEF mutant M125G; [4],100%
same,EC50,CfEcR-DEF mutant M125N,9.88 µM
same,Emax,CfEcR-DEF mutant M125N; [4],100%
same,EC50,CfEcR-DEF mutant M125V,1.64 µM
same,Emax,CfEcR-DEF mutant M125V; [4],100%
same,EC50,CfEcR-DEF mutant M219K,2.9 µM
same,Emax,CfEcR-DEF mutant M219K; [4],100%
same,EC50,CfEcR-DEF mutant M219W,3.35 µM
same,Emax,CfEcR-DEF mutant M219W; [4],100%
same,EC50,CfEcR-DEF mutant T52M,6.74 µM
same,Emax,"CfEcR-DEF mutant T52M; NIH3T3, 40 h, read-out: Rel MaxFI",100%
same,EC50,CfEcR-DEF mutant T52R,6.69 µM
same,Emax,CfEcR-DEF mutant T52R; [4],100%

# Source: patent publication US9163256B2, “Mutant receptors and their use in a nuclear receptor-based inducible gene expression system” (priority 2004, dated 2015)
